Source: patent US20130065818A1, “Arylamide Compounds And Compositions And Uses Thereof” (POLYMEDIX, priority 2006, published 2013)
Like-named read-outs stand apart in the source and are kept apart here.

Tests used:
Streptococcus pneumoniae = test: MIC, 25 ocular isolates, broth microdilution (Example 8); format: cell-based
Method: (§1) Mueller-Hinton Broth supplemented with 2% lysed horse blood in tubes was inoculated with 25 ocular isolates of Streptococcus pneumoniae, Streptococcus viridans group, and Moraxella species (including Moraxella catarrhalis) plus two controls (Staphylococcus aureus and E. coli) and incubated at 37° C. overnight. Additionally, Mueller-Hinton Broth in tubes was inoculated with two controls (Staphylococcus aureus and E. coli) and incubated at 37° C. overnight on a shaker set at 250 rpm.
(§2) On the day of testing, a 640 μg/ml (1280 μg/ml for Serratia marcescens and Pseudomonas aeruginosa) concentration was prepared from a 1% stock solution in 0.01% acetic acid, 0.2% BSA in polypropylene tubes.
(§3) Serial doubling dilutions in 0.01% acetic acid, 0.2% BSA in 96 well polypropylene plates, which are used as reservoirs for the inoculation of the test plates, were carried out to obtain serial dilutions of test agents at 10 times the required test concentrations: 640, 320, 160, 80, 40, 20, 10, 5, 2.5, 1.25, and 0.625 μg/ml (1280, 640, 320, 160, 80, 40, 20, 10, 5, 2.5, and 1.25 μg/ml for Serratia marcescens and Pseudomonas aeruginosa).
(§4) Ten μl of diluted 10×test agents was added to each well of one row of the 96 well polypropylene plates from column 2 to column 12 (column 1 is a control for bacteria alone, with no peptide). Test agent concentrations in columns 2-12 were as follows: 64, 32, 16, 8, 4, 2, 1, 0.5, 0.25, 0.125, and 0.0625 μg/ml (128, 64, 32, 16, 8, 4, 2, 1, 0.5, 0.25, and 0.125 μg/ml for Serratia marcescens and Pseudomonas aeruginosa). The same peptide was in each of the 8 rows. One plate contained dilutions of one test agent and 8 bacterial isolates.
(§5) On the day of testing, the overnight bacterial broth cultures of Streptococcus pneumoniae, Streptococcus viridans and Moraxella species (including Moraxella catarrhalis) plus two controls (Staphylococcus aureus and E. coli) were diluted in 5 ml of trypticase soy broth to yield turbidity equal to a 0.5 McFarland standard. The final inoculum for MIC testing for Streptococcus pneumoniae, Streptococcus viridans and Moraxella species (including Moraxella catarrhalis) was achieved by placing 0.1 ml of the turbidity adjusted sample to 5 ml of Mueller-Hinton broth containing 2% lysed horse red blood cells.
(§6) Ninety μl of the bacterial suspensions was dispensed in each well from column 1 to column 12. Each bacterial isolate was placed in one row of a 96 well polypropylene plate containing the test agents. The plates were placed on shaker at 15 minutes at room temperature, and then incubated at 37° C. overnight. MICs were determined visually as the lowest concentration of drug that inhibits visible bacterial growth.

[1] = system: Streptococcus viridans group; test: as above; format: cell-based
Method: as §1, §2, §3, §4, §5, §6

N=C(N)NCCCCC(=O)Nc1cc(C(F)(F)F)cc(NC(=O)c2cnc(C(=O)Nc3cc(C(F)(F)F)cc(NC(=O)CCCCNC(=N)N)c3SCCN)cn2)c1SCCN [Oligomer 5]
1 µg/mL: MIC (Streptococcus pneumoniae; Streptococcus pneumoniae, isolate 18—B1272, read-out: MIC) | MIC (Streptococcus pneumoniae; Streptococcus pneumoniae, isolate 19—B1264, read-out: MIC)
128 µg/mL: MIC90 ([1]; 25 isolates, Row 22, >64 was Replaced with 128) | MIC90 ([1]; Streptococcus viridans, 25 isolates, Summary of Results, >64 was Replaced with 128, read-out: MIC90) | MIC90 ([1]; n=25 per group)
4 µg/mL: MIC (Streptococcus pneumoniae; Streptococcus pneumoniae, isolate 25—B1214, read-out: MIC) | MIC (Streptococcus pneumoniae; Streptococcus pneumoniae, n=25 per group, read-out: Median MIC) | MIC50 (Streptococcus pneumoniae; Streptococcus pneumoniae, 25 isolates, Summary of Results, read-out: MIC50) | MIC (Streptococcus pneumoniae; Streptococcus pneumoniae, 25 isolates, Summary of Results, read-out: Median MIC) | MIC50 (Streptococcus pneumoniae; n=25 per group) | MIC ([1]; Streptococcus viridans, isolate 16—E262, read-out: MIC) | MIC ([1]; Streptococcus viridans, isolate 20—E344, read-out: MIC) | MIC ([1]; Streptococcus viridans, isolate 21—E308, read-out: MIC)
32 µg/mL: MIC ([1]; Streptococcus viridans, isolate 12—E409, read-out: MIC) | MIC ([1]; Streptococcus viridans, isolate 15—E396, read-out: MIC) | MIC ([1]; Streptococcus viridans, isolate 18—E359, read-out: MIC)
2 µg/mL: MIC (Streptococcus pneumoniae; Streptococcus pneumoniae, isolate 21—B1245, read-out: MIC) | MIC ([1]; Streptococcus viridans, isolate 22—E294, read-out: MIC)
4 to 128 µg/mL: Range of MICs (Streptococcus pneumoniae; n=25 per group)
16 µg/mL: MIC (Streptococcus pneumoniae; Streptococcus pneumoniae, isolate 17—B1287, read-out: MIC) | MIC (Streptococcus pneumoniae; Streptococcus pneumoniae, isolate 20—B1252, read-out: MIC) | MIC (Streptococcus pneumoniae; Streptococcus pneumoniae, isolate 23—B1213, read-out: MIC) | MIC90 (Streptococcus pneumoniae; Streptococcus pneumoniae, 25 isolates, Summary of Results, read-out: MIC90) | MIC90 (Streptococcus pneumoniae; n=25 per group) | MIC50 ([1]; 25 isolates, Row 13) | MIC ([1]; Streptococcus viridans, 25 ocular isolates, Mueller-Hinton broth with 2% lysed horse red blood cells, read-out: Median MIC) | MIC ([1]; Streptococcus viridans, isolate 4—E272, read-out: MIC) | MIC ([1]; Streptococcus viridans, isolate 7—E456, read-out: MIC) | MIC ([1]; Streptococcus viridans, isolate 17—E362, read-out: MIC) | MIC ([1]; Streptococcus viridans, isolate 19—E348, read-out: MIC) | MIC ([1]; Streptococcus viridans, n=25 per group, read-out: Median MIC) | MIC50 ([1]; Streptococcus viridans, 25 isolates, Summary of Results, read-out: MIC50) | MIC ([1]; Streptococcus viridans, 25 isolates, Summary of Results, read-out: Median MIC) | MIC50 ([1]; n=25 per group)
> 64 µg/mL: MIC ([1]; Streptococcus viridans, isolate 5—E506, read-out: MIC) | MIC ([1]; Streptococcus viridans, isolate 9—E423, read-out: MIC) | MIC ([1]; Streptococcus viridans, isolate 10—E418, read-out: MIC) | MIC ([1]; Streptococcus viridans, isolate 13—E405, read-out: MIC) | MIC ([1]; Streptococcus viridans, isolate 14—E404, read-out: MIC)
64 µg/mL: MIC ([1]; Streptococcus viridans, isolate 2—K1680, read-out: MIC)
8 µg/mL: MIC (Streptococcus pneumoniae; Streptococcus pneumoniae, isolate 22—B1211, read-out: MIC) | MIC (Streptococcus pneumoniae; Streptococcus pneumoniae, isolate 24—B1208, read-out: MIC) | MIC ([1]; Streptococcus viridans, isolate 1—K1684, read-out: MIC) | MIC ([1]; Streptococcus viridans, isolate 3—E546, read-out: MIC) | MIC ([1]; Streptococcus viridans, isolate 8—E432, read-out: MIC) | MIC ([1]; Streptococcus viridans, isolate 11—E412, read-out: MIC) | MIC ([1]; Streptococcus viridans, isolate 25—E265, read-out: MIC)
0.5 µg/mL: MIC ([1]; Streptococcus viridans, isolate 6—E496, read-out: MIC) | MIC ([1]; Streptococcus viridans, isolate 23—E292, read-out: MIC) | MIC ([1]; Streptococcus viridans, isolate 24—E285, read-out: MIC)
0.5 to 128 µg/mL: Range of MICs ([1]; 25 isolates, Summary of Results, >64 was Replaced with 128) | Range of MICs ([1]; n=25 per group)
